Laboratory results reported in patent US8383824B2, “Heterocyclic antiviral compounds” (Roche Palo Alto LLC, priority 2009, dated 2013).

What was measured:
[1] = system: HCV replicon cells (2209-23); test: HCV replicon assay (Renilla luciferase reporter); format: cell-based, HCV genotype 1b replicon in human hepatoma Huh7 cells; conditions: Hepatitis C virus, 72 h; 2209-23 cells, three days incubation
[2] = Determination of pharmacokinetic parameters in rats; format: in vivo; conditions: male, Wistar Han (Hanover-Wistar), Crl:WI(GLx/BRL/Han)IGS BR, rat, oral gavage, 10 mg/kg, plasma; for AUC(0-t): read-out: AUC0→24 (extrapolated)
Description: Intact male IGS Wistar Han Rats Crl:WI(GLx/BRL/Han)IGS BR (Hanover-Wistar) rats weighing 200-250 g were used. Groups of three rats were used for each dose level of an experimental compound. Animals were allowed normal access to chow and water throughout the experiment. The test substance was formulated as an aqueous suspension containing Captex355EP, Capmul MCM, EtOH, and propylene glycol (30:20:20:30) at a dose equivalent to 10 mg/kg of the I-6 and was administered orally by gavage. A blood sample (0.3 mL) was collected from the treated rats at, 0.25, 0.5, 1, 3, 5, and 8 h from a jugular cannula and at 24 h by cardiac puncture. Potassium oxalate/NaF were added to the samples which were stored on ice during sampling procedure. The samples were spun in a refrigerated centrifuge at […] as soon as possible and the plasma samples were stored in a −80° C. freezer until analysis. Aliquots of plasma (0.05 mL) were mixed with 0.1 mL of acetonitrile. Internal standard (0.05 mL in water) and 0.02 mL blank solvent were added. A set of calibration standards was prepared by mixing 0.05-mL aliquots of plasma from untreated rats with 0.1 mL acetonitrile, 0.02-mL aliquots of standard solution in methanol:water (1:1) and 0.05-mL aliquots of the internal standard in water. Each plasma sample and calibration standard was vortexed thoroughly and then centrifuged at 3000 rpm for 5 min to precipitate the protein. Supernatant (100 μL each) from centrifugation was transferred into a 96-well plate containing 200 μL of aqueous mobie phase for LC/MS/MS analysis.

HCV = conditions: monotherapy; cited from earlier work

SMILES: [2H]C([2H])([2H])C(c1cc(-c2ccc[nH]c2=O)cc(/C=C/c2ccc(NS(C)(=O)=O)cc2)c1OC)(C([2H])([2H])[2H])C([2H])([2H])[2H] [Compound I-1, N-(4-{(E)-2-[3-[1,1-di(methyl-d3)ethyl-2,2,2-d3]-2-methoxy-5-(2-oxo-1,2-dihydro-pyridin-3-yl)-phenyl]-vinyl}-phenyl)-methanesulfonamide]
- IC50 [1]: 6.1 nM

SMILES: [2H]C([2H])([2H])C(c1cc(-c2cc(Cl)c[nH]c2=O)cc(/C=C/c2ccc(NS(C)(=O)=O)cc2)c1OC)(C([2H])([2H])[2H])C([2H])([2H])[2H] [Compound I-3, N-(4-{(E)-2-[3-[1,1-di(methyl-d3)ethyl-2,2,2-d3]-2-methoxy-5-(2-oxo-5-chloro-1,2-dihydro-pyridin-3-yl)-phenyl]-vinyl}-phenyl)-methanesulfonamide]
- AUC [2]: 810 ng·h/mL
- Cmax [2]: 83.4 ng/mL
- AUC(0-t) [2]: 1000 ng·h/mL

SMILES: [2H]C([2H])([2H])C(c1cc(-c2c[nH]c(=O)[nH]c2=O)cc(/C=C/c2ccc(NS(C)(=O)=O)cc2)c1OC)(C([2H])([2H])[2H])C([2H])([2H])[2H] [Compound I-4, N-(4-{(E)-2-[3-[1,1-di(methyl-d3)ethyl-2,2,2-d3]-5-(2,4-dioxo-1,2,3,4-tetrahydro-pyrimidin-5-yl)-2-methoxy-phenyl]-vinyl}-phenyl)-methanesulfonamide]
- IC50 [1]: 3.9 nM

SMILES: COc1c(/C=C/c2ccc(NS(C)(=O)=O)cc2)cc(-c2cc(Cl)c[nH]c2=O)cc1C(C)(C)C [I-3 (non-deuterated), reference compound]
- AUC [2]: 338 ng·h/mL
- Cmax [2]: 55.8 ng/mL
- AUC(0-t) [2]: 365 ng·h/mL

SMILES: NC(=O)c1ncn([C@@H]2O[C@H](CO)[C@@H](O)[C@H]2O)n1 [ribavirin, 1-((2R,3R,4S,5R)-3,4-Dihydroxy-5-hydroxymethyl-tetrahydro-furan-2-yl)-1H-[1,2,4]triazole-3-carboxylic acid amide]
- patients with serum amino transferase levels reduced to normal (HCV): 40%
